Data reported in the NIST ThermoML archive (doi:10.1016/j.jct.2016.08.005).
± gives the expanded uncertainty stated by the source.

Conditions: Liquid, Vibrating tube method

Q: Which mass density (283.15 K, 100 kPa) does the source give for `Cc1ccsc1` [3-methylthiophene] here?
A: 1031.82 ± 0.51 kg/m3

Q: And the mass density (283.15 K, 2000 kPa)?
A: 1033.26 ± 0.51 kg/m3

Q: And the mass density (283.15 K, 5000 kPa)?
A: 1035.47 ± 0.51 kg/m3

Q: What about the mass density (283.15 K, 7000 kPa) of the same molecule?
A: 1036.93 ± 0.51 kg/m3

Q: And the mass density (283.15 K, 10000 kPa)?
A: 1039.07 ± 0.51 kg/m3

Q: And the mass density (283.15 K, 15000 kPa)?
A: 1042.56 ± 0.51 kg/m3

Q: What about the mass density (283.15 K, 20000 kPa) of the same molecule?
A: 1045.93 ± 0.52 kg/m3

Q: What about the mass density (283.15 K, 25000 kPa) of the same molecule?
A: 1049.2 ± 0.52 kg/m3

Q: What about the mass density (283.15 K, 30000 kPa) of the same molecule?
A: 1052.37 ± 0.52 kg/m3

Q: What about the mass density (283.15 K, 35000 kPa) of the same molecule?
A: 1055.46 ± 0.53 kg/m3

Q: And the mass density (283.15 K, 40000 kPa)?
A: 1058.46 ± 0.53 kg/m3

Q: What about the mass density (283.15 K, 45000 kPa) of the same molecule?
A: 1061.37 ± 0.54 kg/m3

Q: And the mass density (283.15 K, 50000 kPa)?
A: 1064.22 ± 0.54 kg/m3

Q: What about the mass density (283.15 K, 55000 kPa) of the same molecule?
A: 1066.97 ± 0.55 kg/m3

Q: What about the mass density (283.15 K, 60000 kPa) of the same molecule?
A: 1069.67 ± 0.56 kg/m3

Q: And the mass density (283.15 K, 65000 kPa)?
A: 1072.32 ± 0.57 kg/m3

Q: What about the mass density (288.15 K, 100 kPa) of the same molecule?
A: 1026.57 ± 0.51 kg/m3

Q: What about the mass density (288.15 K, 2000 kPa) of the same molecule?
A: 1028.05 ± 0.51 kg/m3

Q: What about the mass density (288.15 K, 5000 kPa) of the same molecule?
A: 1030.34 ± 0.51 kg/m3

Q: What about the mass density (288.15 K, 7000 kPa) of the same molecule?
A: 1031.84 ± 0.51 kg/m3

Q: And the mass density (288.15 K, 10000 kPa)?
A: 1034.03 ± 0.51 kg/m3

Q: What about the mass density (288.15 K, 15000 kPa) of the same molecule?
A: 1037.61 ± 0.51 kg/m3

Q: What about the mass density (288.15 K, 20000 kPa) of the same molecule?
A: 1041.07 ± 0.51 kg/m3

Q: What about the mass density (288.15 K, 25000 kPa) of the same molecule?
A: 1044.41 ± 0.52 kg/m3

Q: And the mass density (288.15 K, 30000 kPa)?
A: 1047.65 ± 0.52 kg/m3

Q: And the mass density (288.15 K, 35000 kPa)?
A: 1050.8 ± 0.52 kg/m3

Q: What about the mass density (288.15 K, 40000 kPa) of the same molecule?
A: 1053.86 ± 0.53 kg/m3

Q: And the mass density (288.15 K, 45000 kPa)?
A: 1056.84 ± 0.53 kg/m3

Q: And the mass density (288.15 K, 50000 kPa)?
A: 1059.74 ± 0.54 kg/m3

Q: What about the mass density (288.15 K, 55000 kPa) of the same molecule?
A: 1062.56 ± 0.55 kg/m3

Q: What about the mass density (288.15 K, 60000 kPa) of the same molecule?
A: 1065.32 ± 0.56 kg/m3

Q: What about the mass density (288.15 K, 65000 kPa) of the same molecule?
A: 1068.01 ± 0.56 kg/m3

Q: What about the mass density (293.15 K, 100 kPa) of the same molecule?
A: 1021.31 ± 0.51 kg/m3

Q: What about the mass density (293.15 K, 2000 kPa) of the same molecule?
A: 1022.81 ± 0.51 kg/m3

Q: And the mass density (293.15 K, 5000 kPa)?
A: 1025.16 ± 0.51 kg/m3

Q: What about the mass density (293.15 K, 7000 kPa) of the same molecule?
A: 1026.7 ± 0.51 kg/m3

Q: What about the mass density (293.15 K, 10000 kPa) of the same molecule?
A: 1028.95 ± 0.51 kg/m3

Q: And the mass density (293.15 K, 15000 kPa)?
A: 1032.61 ± 0.51 kg/m3

Q: And the mass density (293.15 K, 20000 kPa)?
A: 1036.16 ± 0.51 kg/m3

Q: And the mass density (293.15 K, 25000 kPa)?
A: 1039.6 ± 0.52 kg/m3

Q: What about the mass density (293.15 K, 30000 kPa) of the same molecule?
A: 1042.92 ± 0.52 kg/m3

Q: And the mass density (293.15 K, 35000 kPa)?
A: 1046.15 ± 0.52 kg/m3

Q: And the mass density (293.15 K, 40000 kPa)?
A: 1049.27 ± 0.53 kg/m3

Q: And the mass density (293.15 K, 45000 kPa)?
A: 1052.31 ± 0.53 kg/m3

Q: What about the mass density (293.15 K, 50000 kPa) of the same molecule?
A: 1055.28 ± 0.54 kg/m3

Q: What about the mass density (293.15 K, 55000 kPa) of the same molecule?
A: 1058.15 ± 0.54 kg/m3

Q: What about the mass density (293.15 K, 60000 kPa) of the same molecule?
A: 1060.96 ± 0.55 kg/m3

Q: What about the mass density (293.15 K, 65000 kPa) of the same molecule?
A: 1063.7 ± 0.56 kg/m3

Q: And the mass density (298.15 K, 100 kPa)?
A: 1016 ± 0.51 kg/m3

Q: And the mass density (298.15 K, 2000 kPa)?
A: 1017.57 ± 0.51 kg/m3

Q: And the mass density (298.15 K, 5000 kPa)?
A: 1019.98 ± 0.51 kg/m3

Q: What about the mass density (298.15 K, 7000 kPa) of the same molecule?
A: 1021.56 ± 0.51 kg/m3

Q: What about the mass density (298.15 K, 10000 kPa) of the same molecule?
A: 1023.89 ± 0.51 kg/m3

Q: What about the mass density (298.15 K, 15000 kPa) of the same molecule?
A: 1027.64 ± 0.51 kg/m3

Q: What about the mass density (298.15 K, 20000 kPa) of the same molecule?
A: 1031.29 ± 0.51 kg/m3

Q: What about the mass density (298.15 K, 25000 kPa) of the same molecule?
A: 1034.81 ± 0.51 kg/m3

Q: What about the mass density (298.15 K, 30000 kPa) of the same molecule?
A: 1038.2 ± 0.52 kg/m3

Q: What about the mass density (298.15 K, 35000 kPa) of the same molecule?
A: 1041.52 ± 0.52 kg/m3

Q: What about the mass density (298.15 K, 40000 kPa) of the same molecule?
A: 1044.71 ± 0.52 kg/m3

Q: What about the mass density (298.15 K, 45000 kPa) of the same molecule?
A: 1047.82 ± 0.53 kg/m3

Q: What about the mass density (298.15 K, 50000 kPa) of the same molecule?
A: 1050.84 ± 0.53 kg/m3

Q: And the mass density (298.15 K, 55000 kPa)?
A: 1053.78 ± 0.54 kg/m3

Q: What about the mass density (298.15 K, 60000 kPa) of the same molecule?
A: 1056.65 ± 0.55 kg/m3

Q: And the mass density (298.15 K, 65000 kPa)?
A: 1059.43 ± 0.55 kg/m3

Q: What about the mass density (303.15 K, 100 kPa) of the same molecule?
A: 1010.72 ± 0.51 kg/m3

Q: And the mass density (303.15 K, 2000 kPa)?
A: 1012.32 ± 0.51 kg/m3

Q: And the mass density (303.15 K, 5000 kPa)?
A: 1014.81 ± 0.51 kg/m3

Q: What about the mass density (303.15 K, 7000 kPa) of the same molecule?
A: 1016.43 ± 0.51 kg/m3

Q: And the mass density (303.15 K, 10000 kPa)?
A: 1018.83 ± 0.51 kg/m3

Q: What about the mass density (303.15 K, 15000 kPa) of the same molecule?
A: 1022.7 ± 0.51 kg/m3

Q: What about the mass density (303.15 K, 20000 kPa) of the same molecule?
A: 1026.42 ± 0.51 kg/m3

Q: And the mass density (303.15 K, 25000 kPa)?
A: 1030.01 ± 0.51 kg/m3

Q: And the mass density (303.15 K, 30000 kPa)?
A: 1033.5 ± 0.52 kg/m3

Q: And the mass density (303.15 K, 35000 kPa)?
A: 1036.87 ± 0.52 kg/m3

Q: What about the mass density (303.15 K, 40000 kPa) of the same molecule?
A: 1040.16 ± 0.52 kg/m3

Q: What about the mass density (303.15 K, 45000 kPa) of the same molecule?
A: 1043.34 ± 0.53 kg/m3

Q: What about the mass density (303.15 K, 50000 kPa) of the same molecule?
A: 1046.42 ± 0.53 kg/m3

Q: What about the mass density (303.15 K, 55000 kPa) of the same molecule?
A: 1049.41 ± 0.54 kg/m3

Q: And the mass density (303.15 K, 60000 kPa)?
A: 1052.33 ± 0.54 kg/m3

Q: What about the mass density (303.15 K, 65000 kPa) of the same molecule?
A: 1055.16 ± 0.55 kg/m3

Q: What about the mass density (308.15 K, 100 kPa) of the same molecule?
A: 1005.4 ± 0.51 kg/m3

Q: What about the mass density (308.15 K, 2000 kPa) of the same molecule?
A: 1007.04 ± 0.51 kg/m3

Q: What about the mass density (308.15 K, 5000 kPa) of the same molecule?
A: 1009.61 ± 0.51 kg/m3

Q: And the mass density (308.15 K, 7000 kPa)?
A: 1011.27 ± 0.51 kg/m3

Q: And the mass density (308.15 K, 10000 kPa)?
A: 1013.72 ± 0.51 kg/m3

Q: What about the mass density (308.15 K, 15000 kPa) of the same molecule?
A: 1017.69 ± 0.51 kg/m3

Q: And the mass density (308.15 K, 20000 kPa)?
A: 1021.53 ± 0.51 kg/m3

Q: What about the mass density (308.15 K, 25000 kPa) of the same molecule?
A: 1025.22 ± 0.51 kg/m3

Q: And the mass density (308.15 K, 30000 kPa)?
A: 1028.73 ± 0.51 kg/m3

Q: What about the mass density (308.15 K, 35000 kPa) of the same molecule?
A: 1032.24 ± 0.52 kg/m3

Q: What about the mass density (308.15 K, 40000 kPa) of the same molecule?
A: 1035.59 ± 0.52 kg/m3

Q: What about the mass density (308.15 K, 45000 kPa) of the same molecule?
A: 1038.84 ± 0.52 kg/m3

Q: And the mass density (308.15 K, 50000 kPa)?
A: 1041.98 ± 0.53 kg/m3

Q: And the mass density (308.15 K, 55000 kPa)?
A: 1045.05 ± 0.53 kg/m3

Q: What about the mass density (308.15 K, 60000 kPa) of the same molecule?
A: 1048.03 ± 0.54 kg/m3

Q: And the mass density (308.15 K, 65000 kPa)?
A: 1050.91 ± 0.54 kg/m3
